Marks after values point to notes of the source that are not given here.

Data set [1] relates to tumor cell cultures (KML). The data set is described as follows: Protein synthesis: inclusion of 3H-amino acids in tumor cell cultures. In kind it is cell-based, mice. The conditions noted are these: 50 μg/ml, incubation 24 hours. As to the method:
The effect of the substances on protein synthesis is determined with the aid of the suppression stage through the inclusion of radioactive precursors of amino acids (totaled mixture of ^3H-amino acids). 1 million cells in a “log phase” were selected for this. The complexes were introduced in a dosage of 50 μg/ml and, in parallel, the amino acids with an activity of 10 mCi/ml were introduced into 10 ml bottles. After incubation for 24 hours, the cells were washed out from the cultivation nutrient medium, and a lysis (disruption) was carried out. The radioactivity of the proteins was determined in a […] (table 25).

The test system of data set [2] is AKATON tumor. The data set is described as follows: AKATON tumor transplanted after administration of MOC.tegafur. In kind it is in vivo. The conditions noted are these: 5 mg/kg i.v. 4 days in succession before transplantation. As to the method:
The product was administered intravenously in a physiological solution of 0.3 ml on 4 days in succession (table 20). The AKATON tumor was then transplanted.

The subject of data set [3] is tumor cell cultures (KML). The data set is described as follows: Suppression of cell proliferation in tumor cell cultures (KML). Format: cell-based, mice. The note with it: incubation 24 hours. As to the method: The effect of the substances MOC.melphalan and MOC.tegafur of the invention on the proliferative activity, morphology and protein synthesis was investigated on tumor cell cultures (KML). This took place with the mice separated out of the melanoma-16 line. 80 000 cells/ml were distributed in 3 ml of DMEM with the addition of embryonic calf serum, 200 μ/mol of glutamine and antibiotic. After cultivation of the cells at a temperature of 37° C. for 24 hours (logarithmic cell growth phase), the MOC substances were added in the concentration of 10 and 100 μg/ml. After incubation for 24 hours, the number of live cells was determined. In parallel, the fixed specimens of the cells were prepared for morphological analysis.

Data set [4] is described as follows: Solubility and stability in air.
In data set [5] the test system is sarcoma-180 tumor. The data set is described as follows: Sarcoma-180 tumor tissue changes and mitoses (Example 12). In kind it is in vivo, mice. The note with it: 5 mg/kg intraabdominal days 3, 5, 9. As to the method:
The sarcoma-180 tumor was transplanted with a weight of 20 to 22 g into sexually mature crossbred mice. 48 hours after the transplantation of the sarcoma-180 tumor, the mice received the substance MOC.tegafur in a dosage of 5 mg/kg of body weight by intraabdominal administration in 0.9% NaCl solution. Administration took place on days 3, 5 and 9.
On day 21, the mice were sacrificed by decapitation and the tumor tissue was removed for histological examination. The antitumor activity of MOC.tegafur was provisionally determined.
In the investigation, the activity of the tumor tissue was determined in animals which received the product MOC.tegafur and in untreated animals in the control. The number of mitoses and the mitosis index was calculated. The average number of mitoses in the investigation group was 2.55% and in the control animal group was 11.2%. The mitosis index in these animal groups was 0.9 and 4.75. On examination under the microscope, an increase in the number of pathological metaphases and anaphases was observed.

Data set [6] relates to B-16 melanoma tumor. The data set is described as follows: B-16 melanoma tumor, MOC.melphalan and MOC.tegafur (Example 13). Format: in vivo, mice. The conditions noted are these: Dose 5 mg/kg (table), day 16. As to the method: MOC.tegafur was administered in a physiological solution. The animals in the control group likewise received administration of the solutions (without products). On day 16, the mice were sacrificed by decapitation, tumor tissue was removed for histological examination, and the tumor was investigated for antitumor activity (table 23). The tumors were fixed with 10% formalin, which was followed by embedding in paraffin. The section thickness of 5 μm were stained with hematoxylin-eosinome. The microscopy was carried out with a Leica Galen microscope.

The test system of data set [7] is AKATON tumor. The data set can be described thus: AKATON tumor, MOC.tegafur and tegafur (Example 11, Exp. I, II). In kind it is in vivo, mice. As to the method: 48 hours after transplantation of the AKATON tumor (adenocarcinoma of the small bowel), the mice of the Balb line received the substance MOC.tegafur in a dosage of 5 mg/kg of body weight by intraabdominal administration in 0.3 ml of a physiological solution. This took place on days 3, 5, 7 and 9. The animals were sacrificed on day 21 of the investigation.
48 hours after transplantation of the AKATON tumor, the mice of the Balb line received the substance MOC.tegafur by intravenous administration in 0.3 ml of a physiological solution. This took place on days 3, 5, 7 and 9. The animals were sacrificed on day 21 of the investigation.

For data set [8], the system named is sarcoma-180 tumor. The data set is described as follows: Sarcoma-180 tumor, MOC.tegafur and tegafur (Example 11, Exp. III). In kind it is in vivo, mice. The note with it: for Tumor weight: control 3.9. As to the method: 48 hours after transplantation of the sarcoma-180 tumor, mice of the Balb line received the substance MOC.tegafur by intraabdominal administration in 0.3 ml of a physiological solution. Administration took place on days 3, 5 and 9. The animals were sacrificed on day 21 of the investigation.

Data set [9] deals with C-180 sarcoma. The data set can be described thus: Antitumor activity for C-180 sarcoma, intraperitoneal. Format: in vivo. The conditions noted are these: 5 mg/kg intraperitoneal. As to the method: 4. Antitumor Activity for C-180 Sarcoma
The results of series of experiments in which the stated active ingredient was administered intra-peritoneally in the stated dosage in physiological saline solution are shown in table 5 below.

Data set [10] relates to S-180 sarcoma tumor. The data set is described as follows: S-180 sarcoma in white crossbred mice (Example 7). In kind it is in vivo. The conditions noted are these: day 21. As to the method: After transplantation of the S-180 sarcoma tumor into white crossbred mice, the animals received the substance MOC.melphalan by intraabdominal administration in a dosage of 1 mg/kg in 0.3 ml of 10% DMSO solution on days 3, 5 and 9. The animals were sacrificed on day 21 of the investigation and underwent histological, morphological examination (table 11).
After transplantation of the S-180 sarcoma tumor into white crossbred mice, the animals received MOC.melphalan and melphalan by intraabdominal administration in a dosage of 5 mg/kg in 0.3 ml of 10% DMSO solution on days 3, 5, 7 and 9. The animals were sacrificed on day 21 of the investigation and underwent histological, morphological examination (table 12).
After transplantation of the S-180 sarcoma tumor into white crossbred mice, the animals received MOC.melphalan and melphalan by intraabdominal administration in a dosage of 5 mg/kg in 0.3 ml of 10% DMSO solution on days 2, 4, 6, 8 and 10. The animals were sacrificed on day 21 of the investigation and underwent histological, morphological examination (table 13).

The conditions of data set [11]: in vivo; cited from earlier work.
Setting [12] is: 3 mg/kg intraabdominal days 3, 5, 9, day 21.
[13] abbreviates: 5 mg/kg intraabdominal days 3, 5, 9, day 21.

On to Cu(C5H7O2)2.C8H9O3N2F [MOC.tegafur], for which the “Suppression of amino acid inclusion” value in data set [1] amounted to 77%. Besides, the “Percent inhibition of tumor volume” value in [2] is 61.3* %. Besides, in [2], the “Percent inhibition of tumor weight” value was 50* %. In addition, the Tumor weight came to 2.20 g in data set [2] (control 4.46); 1.13 g in data set [6] (intraabdominal days 3, 5, 9, control 3.22); 0.61 g in data set [7] (5 mg/kg intraabdominal days 3, 5, 7, 9, day 21, control 4.4); 0.86 g in data set [7] (5 mg/kg intravenous days 3, 5, 7, 9, day 21, control 4.3); 0.43 g in data set [8] (setting [12]); 0.195 g in data set [8] (setting [13]). For the same compound, in [2] (control 7.90), the “Size of the tumor” value was found to be 3.06 cm^3. Further, the “Suppression of growth cells” value in data set [3] (10 μg/ml) is recorded as 32%; in data set [3] (100 μg/ml), 100%. Also, the solubility entry in [4] (in ether and chloroform) is given as “insoluble”; in data set [4] (in water, physiological solution, methanol, ethanol, DMSO and Twin-80), “readily soluble”. Further, the mitosis index in data set [5] (control 4.75) is listed as 0.9. The “average number of mitoses” value in [5] (control 11.2%) was found to be 2.55%. For the same compound, in data set [5] (day 21, provisionally determined), the “percent inhibition of tumor proliferation” value was found to be 96.4%. The “MI (mitosis index)” value in data set [6] (control 4.22) is 0.86. Moreover, the Percent inhibition in data set [6] (intraabdominal days 3, 5, 9) came out at 65.66%; in data set [7] (5 mg/kg intraabdominal days 3, 5, 7, 9, day 21), 86%; in data set [7] (5 mg/kg intravenous days 3, 5, 7, 9, day 21), 80%; in data set [8] (setting [12]), 89%; in data set [8] (setting [13]), 95%.
By % inhibition is commonly meant the relative decrease from the control value, in per cent. A higher % inhibition goes with a response far below the control. For the compound `N[C@@H](Cc1ccc(N(CCCl)CCCl)cc1)C(=O)O` [Melphalan, 4-[bis(2-chloroethyl)amino]-L-phenylalanine, reference compound], the “% inhibition” value in data set [9] came to 49%. Moreover, the “Mass of the tumor” value in [9] (control 2.8) is 2.4 ± 1.1 g. For the same compound, the Percentage inhibition in [10] (5 mg/kg intraabdominal days 2, 4, 6, 8, 10) was determined as 38%; in data set [10] (5 mg/kg intraabdominal days 3, 5, 7, 9), 49%. Besides, the Average tumor mass in data set [10] (5 mg/kg intraabdominal days 2, 4, 6, 8, 10, control 3.9 ± 0.5) was found to be 2.4 ± 1.1 g; in [10] (5 mg/kg intraabdominal days 3, 5, 7, 9, control 2.8) it was 1.4 g.
As usually defined, the LD50 is the dose expected to kill half of the subjects tested. Turning to `O=c1[nH]c(=O)n(C2CCCO2)cc1F` (stereo not drawn) [Tegafur, 5-fluoro-1-(tetrahydro-2-furyl)uracil, reference compound], the LD50 in data set [11] was 650 mg/kg. Further, the Percent inhibition in data set [7] (250 mg/kg intravenous four times) turned out to be 51%; in [7] (250 mg/kg, four times, intraabdominal experiment), 54.5%; in data set [8] (250 mg/kg three times), 20.5%. Further, the Tumor weight is 2.1 g in [7] (250 mg/kg intravenous four times, control 4.3); 1.95 g in data set [7] (250 mg/kg, four times, intraabdominal experiment, control 4.4); 3.1 g in [8] (250 mg/kg three times).

These data come from patent US20060052357A1, “Organometallic anti-tumour agent” (priority 2001, published 2006).
